Data: PubChem BioAssay (NCI)
Values joined by “and” are separate entries in the source; they are usually repeats but may differ in a detail not shown here. Equal entries are not always repeated.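 Values below derive from 48-hour exposures of cells grown in 96-well plates, with endpoints linearly interpolated between the two concentrations bracketing the appropriate inhibition level. GI50: concentration for 50% inhibition of growth. TGI is the concentration that stops growth completely.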 *1 amine or outer side, *2 acyl side, *3 side chain or, on linkers, in order; H or OH if unused. Where a SMILES comes first, the peptide text is derived from it. Bridges are numbered along the chain shown (N, C = ends). [ ]: non-standard residue; d: D form. The star is where a group is joined. Phe(3-Me) = Cc1cccc(C[C@H](N)C(=O)O)c1; NH(4-Cl-2-F-phenyl) = Fc1cc(Cl)ccc1N*; Pro(4R-Me) = C[C@H]1CN[C@H](C(=O)O)C1; Hyp = O=C(O)[C@@H]1C[C@@H](O)CN1; aThr = C[C@H](O)[C@H](N)C(=O)O; Pip = O=C(O)[C@@H]1CCCCN1; CO = O=C([*:1])[*:2]

Test system: MDA-MB-468 breast
Assay: growth of human tumour cells (NCI), 48 h

Row | SMILES | GI50 | TGI
1 | Cn1c2ccccc2c2nnc(N/N=C/c3ccccn3)nc21 | 0.293 µM | 
2 | C[C@@H]1CCN(C(=O)CC#N)C[C@@H]1N(C)c1ncnc2[nH]ccc12 | > 100 µM | > 100 µM
3 | O=C(Nc1ccc(Nc2ccncc2)cc1)c1ccc(Nc2ccnc3ccc([N+](=O)[O-])cc23)cc1 | > 100 µM | > 100 µM
4 | Cc1ccc(C(=O)N/N=C/c2cccc(Oc3ccccc3)c2)cn1 | 4.43 µM | > 34.9 µM
5 | O=c1[nH]nc2c3c(cccc13)NC(CN1Cc3ccccc3C1)=N2 | 7.92 µM | > 100 µM
6 | O=C1C(Cl)=C(N2CCOCC2)C(=O)c2ccccc21 | 1.44 µM | 2.94 µM
7 | CCN(CC)CCCC(C)Nc1cnc(C(=O)Nc2cc(F)cc3cccnc23)cn1 (configuration not stated) | 2.83 µM and 0.327 µM | 
8 | O=[N+]([O-])c1cc(Br)cc2c1[nH]c1ccc(Br)cc12 | 7.52 µM | 79.7 µM
9 | COc1ccc(C(=O)c2cc(OC)c(OC)c(OC)c2)cc1O | 0.239 µM | 0.779 µM
10 | Cc1c(Cl)cccc1NC(=O)c1sc2nc3c(cc2c1N)CCCCCC3 | 0.13 µM | 19.9 µM
11 | Cc1c(CN2CCC(Nc3ncnc4sc(CC(F)(F)F)cc34)CC2)ccc2c1cc(C#N)n2Cc1cn[nH]c1 | 0.842 µM and 0.781 µM | 3.82 µM and 6.25 µM
12 | O=C(CNC(=O)c1cccc2ccccc12)Nc1ccccc1Oc1ccccc1 | 0.325 µM | 5.9 µM
13 | COc1ccc(C2=C(c3cn(C)c4ccccc34)C(=O)NC2=O)cc1OC | 5.86 µM | > 25 µM
14 | Cc1nc(NC(=S)Nc2ccc(F)cc2)sc1C(=O)NNC(=S)Nc1ccc(F)cc1 | 2.22 µM | 9.53 µM
15 | O=C(c1cc(-c2cc3c(cc2C(=O)N2Cc4ccccc4C[C@H]2CN2CCOCC2)OCO3)n2c1CCCC2)N(c1ccccc1)c1ccc(O)cc1 | 3.07 µM | 96.2 µM
16 | O=C1CNc2cc(N3CCN(c4cccc(C(F)(F)F)c4)CC3)ccc2N1 | 4.92 µM | 43.6 µM
17 | CCC(C)/C=C(C)/C=C/C(=O)c1c(O)c(-c2ccc(O)cc2)c[nH]c1=O (configuration not stated) | 1.87 µM | 7.76 µM
18 | O=C1Nc2cc(OC(F)(F)F)ccc2Oc2ccc(-c3ccnc(N4CCNCC4)c3)cc21 | 0.394 µM | 1.46 µM
19 | Cc1nc(Nc2ccc(F)c(Cl)c2)sc1C(=O)O | 1.2 µM | 3.79 µM
20 | Cc1cccc(C[C@H](NC(=O)Nc2ccc(Cl)cc2F)C(=O)N[C@@H]2C(=O)N3C[C@H](O)C[C@H]3C(=O)N3CCCC[C@H]3C(=O)N[C@@H](C)C(=O)N3C[C@H](C)C[C@H]3C(=O)O[C@H]2C)c1 ({NH(4-Cl-2-F-phenyl)-CO}-[Phe(3-Me)][aThr][Hyp][Pip]A[Pro(4R-Me)]; ester 2-C) | 0.253 µM | 1.03 µM
21 | C#CC[C@H](c1nc2cc(Cl)ccc2c(=O)n1Nc1ccccc1)N(CCCN)C(=O)c1cccc(Cl)c1F | 0.0421 µM | 0.755 µM
22 | CCc1ccc(CCC(=O)Nc2ncc(Cc3ccccc3)s2)o1 | 1.55 µM | > 100 µM
23 | O=C(Nc1ccncc1)C(=O)c1cn(S(=O)(=O)c2ccccc2F)c2ccccc12 | 1.51 µM | 9.81 µM
24 | CCc1nc2ccc(Cc3ccc(C(=O)NO)cc3)cc2c(=O)n1CCc1ccccc1 | 0.74 µM | 2.97 µM

Row | SMILES | GI50 | TGI
25 | CO/N=C1/NC(=O)/C(=C/c2ccc3ncccc3c2)S1 | 4.91 µM | > 25 µM
26 | COc1cc(-c2cc(-c3nc4ccccc4[nH]3)[nH]n2)cc(OC)c1OC | 0.935 µM | 16.6 µM
27 | COc1cccc(/C=C/C(=O)c2cc3c(N)c(C(=O)Nc4cccc(Cl)c4C)sc3nc2C)c1 | 0.778 µM | 1.82 µM
28 | COc1ccc(C(=O)/C=C/c2cc(C(=O)c3cc(OC)c(OC)c(OC)c3)ccc2OC)cc1 | 3.03 µM | > 100 µM
29 | O=C(NNc1nc2cc(F)c(F)cc2n2c(CN3CC4CNCC4C3)ccc12)c1ncccn1 (configuration not stated) | 2.04 µM | 9.82 µM
30 | CCOc1cc2ncc(C#N)c(Nc3ccc(F)c(Cl)c3)c2cc1NC(=O)/C=C/CN(C)C | 0.00238 µM | 0.0351 µM
31 | O=C(N/N=C/c1ccc(O)cc1O)c1ccc(Nc2ccnc(C(F)(F)F)c2)cc1 | 15.2 µM | > 100 µM
32 | c1cncc(CNc2ccccc2-c2nnc(Nc3ccc4c(c3)OCCO4)o2)c1 | 0.218 µM | 0.821 µM
33 | CN(C)CC#Cc1cccc(C(=O)c2cnn(-c3ccc(F)cc3)c2N)c1 | 13.3 µM | > 25 µM
34 | COc1ccc(Cn2cc3c(c2-c2cc(OC)c(OC)c(OC)c2)CCc2c(CN4CCCC4)noc2-3)cc1 | 0.28 µM | 0.966 µM
35 | Cc1ccc(NS(=O)(=O)c2cc(C)ccc2C)cc1 | 1.42 µM | 7.28 µM
36 | COc1ccc(/C=C(\C#N)c2cc(OC)c3c(c2)OCO3)cc1 | 0.0173 µM | 0.15 µM
37 | CCS(=O)(=O)c1ccc(OC)c(Nc2nccc(N(C)c3ccc4c(C)[nH]nc4c3)n2)c1 | 3.48 µM | 9.32 µM
38 | Cc1cc2c(C(N)=O)cccc2n1-c1nc2c(c(NCc3ccccc3)n1)CCCN2 | 0.223 µM | 0.477 µM
39 | N#CSCC1CC(O)(c2ccccc2)C(c2ccccc2)C(c2ccc(F)cc2)O1 (configuration not stated) | 3.51 µM | 13.1 µM
40 | COc1ccc(C2c3cc4c(cc3OC(N3CCOCC3)C2C)OCO4)c(OC)c1 (configuration not stated) | 7.18 µM | 32 µM
41 | CC1(C)N=C(N)N=C(N)N1c1cccc(CCCCc2ccc(S(=O)(=O)F)cc2Cl)c1 | 2.13 µM | 18.8 µM
42 | CN1CCN(Cc2ccc(NC(=O)c3[nH]ncc3Nc3ncnc4c3CCC4)cc2)CC1 | 2 µM | 5.84 µM
43 | CSc1ccc(/C(=N/N=C(N)N)c2ccc(F)cc2)cc1 | 0.398 µM | 2.13 µM
44 | Nc1ncc(-c2ccc(C(F)(F)F)cc2)c(NC2CCCCCC2)n1 | 4.15 µM | > 100 µM
45 | COC[C@H]1OC(=O)c2coc3c2[C@@]1(C)C1=C(C3=O)[C@@H]2CCC(=O)[C@@]2(C)C[C@H]1OC(C)=O | 0.421 µM | 4.62 µM
46 | O=C(O)c1ccc(NS(=O)(=O)c2cccc3cccnc23)cc1 | > 100 µM | > 100 µM
47 | Cc1nn2c(/C=C3/C(=O)Nc4ccc(Cl)cc43)c(-c3ccccc3)nc2s1 | 3.47 µM | 14.7 µM
